US7083933B1, “Methods for identification of modulators of OSGPR116 activity” (Prosidion Limited, priority 2003, dated 2006)

What was measured:
[1] = tested on: Wistar rats; test: In vivo acute feeding experiment in fasted rats; set-up: species or system rat; conditions: overnight fasted Wistar rats, 1 and 2h post-treatment, FIG. 13
Procedure: For the acute feeding experiment, the experimental conditions used as closely as possible replicated those of de Fonseca, F. R. et.al. (2001) Nature, 414:209–212. […] Oleoylethanolamide (3 and 10 mg/kg i.p.) or vehicle was administered 15 minutes prior to the availability of food. Oleoylethanolamide was dissolved in dimethylsulfoxide (DMSO) and administered in a 70% DMSO in sterile water solution. Following presentation of food, food intake (grams) was measured at 1, 2, 3 and 4h intervals and the results compared to a normal feeding and vehicle treated control group.

[2] = target: T1, mouse homolog of OSGPR116 (Mus musculus, UniProt Q7TQP3); test: Yeast cell-based Fus1p-LacZ reporter assay, mouse OSGPR116; conditions: mouse isoform, FIG. 9b; Galpha-q5 yeast, 4h incubation
T1 construct: expressed in transfected cells; host or cells: engineered yeast (GPA1 and Ste3 deleted, G-alpha chimera, Fus1p-LacZ reporters)
T1 sequence (Q7TQP3 1-335): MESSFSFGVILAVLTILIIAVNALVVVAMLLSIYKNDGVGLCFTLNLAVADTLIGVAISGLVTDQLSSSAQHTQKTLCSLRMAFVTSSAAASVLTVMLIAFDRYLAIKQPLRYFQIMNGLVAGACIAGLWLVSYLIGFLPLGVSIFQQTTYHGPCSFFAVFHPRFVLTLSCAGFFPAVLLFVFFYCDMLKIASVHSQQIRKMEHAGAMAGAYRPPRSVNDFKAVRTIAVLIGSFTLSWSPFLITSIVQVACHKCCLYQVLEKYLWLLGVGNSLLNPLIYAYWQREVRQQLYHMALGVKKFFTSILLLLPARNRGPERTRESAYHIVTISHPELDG
Description: (§1) The yeast cell-based reporter assays have previously been described in the literature (e.g. see Miret J. J., et. al. (2002) J. Biol. Chem. 277:6881–6887; Campbell R. M., et. al. (1999) Bioorg Med. Chem. Lett. 9:2413–2418; King K., et. al. (1990) Science. 250:121–123); WO 99/14344; WO 00/12704; and U.S. Pat. No. 6,100,042). Briefly, yeast cells have been engineered such that the endogenous yeast G-alpha (GPA1) has been deleted and replaced with G-protein chimeras constructed using multiple techniques. Additionally the endogenous yeast alpha-cell GPCR, Ste3 has been deleted to allow for a […] expression of a mammalian GPCR of choice. In the yeast, elements of the pheromone signaling transduction pathway, which are conserved in eukaryotic cells (for example, the mitogen-activated protein kinase pathway), drive the expression of Fus1. By placing β-galactosidase (LacZ) under the control of the Fus1 promoter (Fus1p), a system has been developed whereby receptor activation leads to an enzymatic read-out. Different yeast strains (e.g. FIG. 10) denote the presence of different G-alpha chimeras (see “yeast reporter assays” in Results section below for definitions).
(§2) Yeast cells are transformed by an adaptation of the Lithium acetate method described by Agatep et.al. (Agatep, R., et. al. (1998) Transformation of Saccharomyces cerevisiae by the lithium acetate/single-stranded carrier DNA/polyethylene glycol (LiAc/ss-DNA/PEG) protocol. Technical Tips Online, Trends Journals, Elsevier). Briefly, yeast cells are grown overnight on yeast tryptone plates (YT). Carrier single-stranded DNA (10 μg), 2 μg of each of two Fus1p-LacZ reporter plasmids (one with URA selection marker and one with TRP), 2 μg of OSGPR116 in yeast expression vector (2μ origin of replication) and a lithium acetate/polyethylene glycol/TE buffer is pipetted into an Epindorf tube. The yeast expression plasmid containing the receptor/no receptor control has a LEU marker. Yeast cells are inoculated into this mixture and the reaction proceeds at 30° C. for 60 minutes. The yeast cells are then heat-shocked at 42° C. for 15 minutes. The cells are then washed and spread on selection plates. The selection plates are synthetic defined yeast media minus LEU, URA and TRP (SD-LUT). After incubating at 30° C. for 2–3 days, colonies that grow on the selection plates are then tested in the LacZ assay.
(§3) In order to perform fluorometric enzyme assays for β-galactosidase, yeast cells were grown overnight in liquid SD-LUT media to an unsaturated concentration (i.e. the cells are still dividing and have not yet reached stationary phase). They are diluted in fresh media to an optimal assay concentration and 90 μL of yeast cells were added to 96-well black polystyrene plates (Costar). Compounds, dissolved in ethanol and diluted in a 1% BSA solution to 10× concentration, were added to the plates and the yeast are placed at 30° C. for 4h. After 4h, the substrate for the β-galactosidase is added to each well. The substrate may yield a fluorescent or calorimetric read-out upon the activity of the β-galactosidase. In these experiments, Fluorescein di (β-D-galactopyranoside) was used (FDG), a substrate for the enzyme that releases fluorescein, allowing a fluorometric read-out. 20 μL of 500 uM FDG was used. After incubation of the cells with the substrate for 30–60 mins, 20 μL of 1M sodium carbonate is added to terminate the reaction and enhance the fluorescent signal. The plates were then read in a fluorometer at 485/535 nm. As an alternate read-out system, the yeast are also engineered with a Fus1p-HIS gene which means that activation of the receptor can also be measured through the growth of the yeast in a […] deficient media.

[3] = tested on: vector transformed yeast cells; test: Yeast reporter assay, vector transformed (no receptor) control yeast; assay type: cell-based
Description: as §1, §2, §3

[4] = target: T2, OSGPR116 (Homo sapiens, UniProt Q8TDV5); test: Yeast reporter assay in strains with different G-alpha chimeras; assay type: cell-based; set-up: expressed in transfected cells; host or cells: yeast strains 13397, 13393, 15070, 18043, 20202, 10151 with different G-alpha chimeras; conditions: G-alpha-q (13397), G-alpha-i (13393, 15070, 18043), G-alpha-s (20202, 10151) strains; FIG. 10
T2 sequence (Q8TDV5 1-335): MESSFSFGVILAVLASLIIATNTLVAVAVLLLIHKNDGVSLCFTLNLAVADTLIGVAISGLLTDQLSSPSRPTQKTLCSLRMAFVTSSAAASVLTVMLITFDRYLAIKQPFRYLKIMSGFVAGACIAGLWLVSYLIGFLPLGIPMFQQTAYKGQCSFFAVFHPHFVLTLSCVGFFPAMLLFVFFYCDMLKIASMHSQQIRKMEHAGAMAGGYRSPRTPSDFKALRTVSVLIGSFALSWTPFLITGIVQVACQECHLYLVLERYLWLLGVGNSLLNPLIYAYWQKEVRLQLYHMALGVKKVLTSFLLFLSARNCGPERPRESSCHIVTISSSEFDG
Description: The yeast cell-based reporter assays have previously been described in the literature (e.g. see Miret J. J., et. al. (2002) J. Biol. Chem. 277:6881–6887; Campbell R. M., et. al. (1999) Bioorg Med. Chem. Lett. 9:2413–2418; King K., et. al. (1990) Science. 250:121–123); WO 99/14344; WO 00/12704; and U.S. Pat. No. 6,100,042). Briefly, yeast cells have been engineered such that the endogenous yeast G-alpha (GPA1) has been deleted and replaced with G-protein chimeras constructed using multiple techniques. Additionally the endogenous yeast alpha-cell GPCR, Ste3 has been deleted to allow for a […] expression of a mammalian GPCR of choice. […] By placing β-galactosidase (LacZ) under the control of the Fus1 promoter (Fus1p), a system has been developed whereby receptor activation leads to an enzymatic read-out. […]
In order to perform fluorometric enzyme assays for β-galactosidase, yeast cells were grown overnight in liquid SD-LUT media to an unsaturated concentration (i.e. the cells are still dividing and have not yet reached stationary phase). […] The substrate may yield a fluorescent or calorimetric read-out upon the activity of the β-galactosidase. In these experiments, Fluorescein di (β-D-galactopyranoside) was used (FDG), a substrate for the enzyme that releases fluorescein, allowing a fluorometric read-out. […] The plates were then read in a fluorometer at 485/535 nm. […]

[5] = target: T2, OSGPR116; test: Yeast cell-based Fus1p-LacZ reporter assay, human OSGPR116; set-up: expressed in transfected cells; host or cells: engineered yeast (GPA1 and Ste3 deleted, G-alpha chimera, Fus1p-LacZ reporters); conditions: for rank of efficacy and potency among compounds tested: yeast-based reporter assay
Description: as §1, §2, §3

[6] = target: T2, OSGPR116; test: Adenylate cyclase (alpha-screen cAMP) assay in ASPC-1 cells endogenously expressing OSGPR116; assay type: cell-based; conditions: FIG. 11
Procedure: The adenylate cyclase assay was performed with an alpha-screen cAMP assay kit […]. The manufacturers protocol was followed. Briefly, ASPC-1 cells, known to endogenously express moderate levels of OSGPR116 were […] from the culture flask using a lysis buffer (0.1% BSA in PBS containing 20 μM rolipram and 0.54% TWEEN20), washed with PBS and diluted in assay buffer (0.1% BSA in PBS containing 20 μM rolipram) to a concentration of 600,000 cells/mL. White polystyrene 96-well plates were used for the assay. […] The plate was incubated at room temperature 30 min. For the standard cAMP curve used to quantify the data, 5 μl water+5 μl 4×cAMP in assay buffer+5 μl acceptor beads+5 μl cells were added to the plate. To terminate the assay, 10 ul of the donor beads solution was added (30 nM biotin-cAMP/60 μg streptavidin-donor beads in 1 mL lysis buffer). The plates were incubated overnight, protected from light. A Fusion-αHT counter was used to read the plates according to the kit's instructions.

CCCCCCCC/C=C\CCCCCCCC(=O)NCCO [oleoyl ethanolamide]
feeding (food intake) ([1]; 3 mg/kg i.p.): inhibition of feeding
feeding (food intake) ([1]; 10 mg/kg i.p.): inhibition of feeding
effect on fluorescence (β-galactosidase activity) in yeast transformed with OSGPR116 receptor [2]: increase in fluorescence
response of vector controls in the same yeast strains ([3]; G-alpha chimera strains, FIG. 10): did not respond
increase in fluorescence in vector transformed cells ([3]; yeast without OSGPR116 expression, FIGS. 9a, 9b): not
response in OSGPR116-transformed yeast with G-alpha chimeras [4]: produce a response
effect on fluorescence (β-galactosidase activity) in yeast transformed with OSGPR116 receptor ([5]; human isoform, FIG. 9a, Galpha-q5 yeast, 4h incubation): increase in fluorescence
rank of efficacy and potency among compounds tested ([5]; listed as Oleoyl ethanolamide): most efficacious and potent
rank of efficacy and potency among compounds tested ([5]; listed as oleoylethanolamide): optimal endogenously produced agonist
forskolin-stimulated cAMP accumulation ([6]; 10 μM compound with forskolin (10 μM)): inhibition
cAMP production ([6]; 10 μM, without forskolin): did not cause an increase
